Numbered stars: 1 amine (or outer) side, 2 acyl side, 3 side chain; on linkers, the order of the positions; unused ones are H or OH. Square brackets hold non-standard residues; d marks the D form. Suc = O=C(CCC(=O)[*:2])[*:1]; NMeV = CN[C@H](C(=O)O)C(C)C; βAla = NCCC(=O)O
Tested on: Tilapia fish
Experiment: Experiment #3: tilapia fed AN6-coated feed, treatment schedules 1 to 8 (survival, weight, length, size distribution, FCR)
Type: in vivo
Details: for increase in average fish weight: D279, compared to control; for % big fish (Big fish 279 dph >1000 g) / % small fish (Small fish 279 dph >476 g) / Δ Treatment - Control (%) big fish (>1000 g) / Δ Treatment - Control (%) small fish (>476 g) / Big fish # (Big fish 279 dph >1000 g) / Small fish # (Small fish 279 dph): 279 dph; for Average FCR/cage / Average density (body/cage) / Average weight gain/fish (g) / Average weight/fish (g) / Total weight/cage (g): D 236 to D 279, % change relative to control
Experimental: The following fish feed was used in this experiment: MeM (powder, manufactured by Bern Aqua), Nanolis P1, P2 (pellet sizes of 1 mm, 1.2-1.5 mm, respectively, manufactured by Ocialis) and Tilaphi 2, 3 & 4 (pellet sizes of 2 mm, 3-4 mm & 5.5 mm manufactured by Ocialis). The feed content is in described in Table 4.
Feed was coated using the following general procedure: Different amounts of the peptide AN6 (SEQ ID NO: 6) were prepared by dissolving the peptide in Tris-HCl solution (50 mM, pH=8.8) in ratio of 15 mg peptide to 1.25 ml Tris-HCl solution. Then, each of the various solutions was mixed with 3 Kg of the basic feed pellets (depending on fish size) using an electric mixer. The peptide-feed mixtures where then dried either in oven at 40° C. for 24 hours or in drying drum (at room temperature) for few hours to form coated pellets.
Tilapia fish (n=4800) were raised from day 10 (0.05 g) post-hatch (dph) in indoor tanks and then transferred to outdoor cages in ponds (40-279 dph). Each cage/tank is an experimental unit. The fish were fed to apparent satiation 2-4 times a day with feed appropriate to their age and treatment as described in Table 5.
The trial included total 48 cages representing 8 treatments, with 6 repeats each. Each cage contained about 100 fish. […] Fed to fish throughout the entire growth-trial period (for 279 days); • Treatment 2 (5 ppm from 10 dph for 120 days): The control diet with the addition of 5 mg peptide/kg of diet (Feed F). Fish were fed the peptide enriched diet for 120 days (4 months), from 10 days of age (D0—the first day of the experiment) to 130 days of age (D120), and the control diet during the last 6 months (159 days) (Feed E); • Treatment 3 (10 ppm from 10 dph for 60 days): The control diet with the addition of 10 mg peptide/kg of diet (Feed G). […] Fish were fed the peptide enriched diet for 90 days (3 months) from 10 days of age (D0) to 100 days of age (D90) and the control diet for the last 7 months (189 days) (Feed E); • Treatment 5 (10 ppm from 10 dph for 120 days): The control diet with the addition of 10 mg peptide/kg of diet (Feed G). Fish were fed the peptide enriched diet for 120 days (4 months) from 10 days of age (D0) to 130 days of age (D120) and the control diet for the last 6 months (159 days) (Feed E); • Treatment 6 (10 ppm from 100 dph for 30 days): The control diet with the addition of 10 mg peptide/kg of diet (Feed G). Fish were fed the peptide enriched diet for 30 days (1 month) from 100 days of age (D90) to 130 days of age (D120) and the control diet for the first three months (90 days from D0 to D90) and the last 6 months (159 days) (Feed E); • Treatment 7 (30 ppm from 10 dph for 60 days): The control diet with the addition of 30 mg peptide/kg of diet (Feed H). Fish were fed the peptide enriched diet for 60 days (2 months) from 10 days of age (D0) to 70 days of age (D60), and the control diet during the last 8 months (219 days) (Feed E); • Treatment 8 (30 ppm from 10 dph for 90 days): The control diet with the addition of 30 mg peptide/kg of diet (Feed H). Fish were fed the peptide enriched diet for 90 days (3 months) from 10 days of age (D0) to 100 days of age (D90) and the control diet for the last 7 months (189 days) (Feed E).
During the experimental period, fish weight and length were measured once a month. Individual fish sex was determined at days 96 and 279 of the experiment. Average fish weight per cage were calculated for each measurement period (FIG. 8). […] Between two weight measurements, average weight gain (FIG. 9A) and daily growth rates (FIG. 9B) were calculated by subtracting the average weight at the beginning and end of the measuring period and dividing by the number of days between.
In order to determine the efficiency of feed conversion into fish substance in experiments (#1, #2, #3), FCR values which reflect the amount of feed needed to grow a kilogram fish, were calculated for each period and for the entire fish growth period. […]

[1] = AN6 for 60 days, 10 mg/Kg feed (Treatment 3)
[2] = AN6 for 90 days, 30 mg/Kg feed (Treatment 8)
[3] = AN6 treated groups (Treatments 2, 3, or 8)
[4] = Treatment 2 (5 ppm from 10 dph for 120 days)
[5] = Treatment 2 (5 ppm from 10 dph for 120 days), of 451 fish
[6] = Treatment 2 (5 ppm from 10 dph for 120 days), female fish, D 96
[7] = Treatment 2 (5 ppm from 10 dph for 120 days), female fish, D 279
[8] = Treatment 2 (5 ppm from 10 dph for 120 days), male fish, D 96
[9] = Treatment 2 (5 ppm from 10 dph for 120 days), male fish, D 279
[10] = Treatment 3 (10 ppm from 10 dph for 60 days)
[11] = Treatment 3 (10 ppm from 10 dph for 60 days), of 480 fish
[12] = Treatment 3 (10 ppm from 10 dph for 60 days), female fish, D 96
[13] = Treatment 3 (10 ppm from 10 dph for 60 days), female fish, D 279
[14] = Treatment 3 (10 ppm from 10 dph for 60 days), male fish, D 96
[15] = Treatment 3 (10 ppm from 10 dph for 60 days), male fish, D 279
[16] = Treatment 4 (10 ppm from 10 dph for 90 days)
[17] = Treatment 4 (10 ppm from 10 dph for 90 days), of 463 fish
[18] = Treatment 4 (10 ppm from 10 dph for 90 days), female fish, D 96
[19] = Treatment 4 (10 ppm from 10 dph for 90 days), female fish, D 279
[20] = Treatment 4 (10 ppm from 10 dph for 90 days), male fish, D 96
[21] = Treatment 4 (10 ppm from 10 dph for 90 days), male fish, D 279
[22] = Treatment 5 (10 ppm from 10 dph for 120 days)
[23] = Treatment 5 (10 ppm from 10 dph for 120 days), of 441 fish

## Succ-Asp-Ser- D-Trp -N(Me)Val-βAla-Leu-Met-NH2 (Suc-DS[dW][NMeV][βAla]LM-NH2; SMILES CSCC[C@H](NC(=O)[C@H](CC(C)C)NC(=O)CCNC(=O)[C@H](C(C)C)N(C)C(=O)[C@@H](Cc1c[nH]c2ccccc12)NC(=O)[C@H](CO)NC(=O)[C@H](CC(=O)O)NC(=O)CCC(=O)O)C(N)=O) [AN6]
5 mg AN6/Kg for 120 days (Treatment 2)
  increase in average fish weight: +7.11%
10 mg AN6/Kg feed from 10 dph for 120 days (Treatment 5)
  increase in average fish weight: +6.41%
5 ppm and 10 ppm AN6 for sufficient time (>90 days), throughout the experimental period
  increased daily growth rate, on average compared to the control: 5.8%
[1]
  FCR: improved FCR significantly
  growth: did not affect growth
[2]
  FCR: improved FCR significantly
  growth: did not affect growth
[3]
  proportion of large fish (>1000 g): higher proportion
  proportion of small fish (<476 g): lower proportion
[4]
  % big fish (Big fish 279 dph >1000 g): 16.6%
  % small fish (Small fish 279 dph >476 g): 4.7%
  Δ Treatment - Control (%) big fish (>1000 g): 6.4%
  Δ Treatment - Control (%) small fish (>476 g): −4.5%
  Average FCR/cage: −2.14%
  Average density (body/cage): 0.45%
  Average weight gain/fish (g): 6.18%
  Average weight/fish (g): 6.41%
  Total weight/cage (g): 6.71%
[5]
  Big fish # (Big fish 279 dph >1000 g): 75
  Small fish # (Small fish 279 dph): 21
[6]
  Length/fish (cm) Mean: 15.85 cm
  Weight/fish (g) Mean: 87.35 g
  Δ Mean % (Treatment vs. control) Length/fish: 0.38%
  Δ Mean % (Treatment vs. control) Weight/fish: 6.24%
[7]
  Length/fish (cm) Mean: 30.76 cm
  Weight/fish (g) Mean: 651.83 g
  Δ Mean % (Treatment vs. control) Length/fish: 2.09%
  Δ Mean % (Treatment vs. control) Weight/fish: 8.30%
[8]
  Length/fish (cm) Mean: 17.22 cm
  Weight/fish (g) Mean: 111.8 g
  Δ Mean % (Treatment vs. control) Length/fish: 0.00%
  Δ Mean % (Treatment vs. control) Weight/fish: 5.97%
[9]
  Length/fish (cm) Mean: 34.37 cm
  Weight/fish (g) Mean: 916.05 g
  Δ Mean % (Treatment vs. control) Length/fish: −0.03%
  Δ Mean % (Treatment vs. control) Weight/fish: 5.86%
[10]
  % big fish (Big fish 279 dph >1000 g): 16.5%
  % small fish (Small fish 279 dph >476 g): 4.8%
  Δ Treatment - Control (%) big fish (>1000 g): 6.2%
  Δ Treatment - Control (%) small fish (>476 g): −4.3%
  Average FCR/cage: −4.28%
  Average density (body/cage): 6.91%
  Average weight gain/fish (g): 9.19%
  Average weight/fish (g): 3.44%
  Total weight/cage (g): 10.27%
[11]
  Big fish # (Big fish 279 dph >1000 g): 79
  Small fish # (Small fish 279 dph): 23
[12]
  Length/fish (cm) Mean: 16.03 cm
  Weight/fish (g) Mean: 87.67 g
  Δ Mean % (Treatment vs. control) Length/fish: 1.52%
  Δ Mean % (Treatment vs. control) Weight/fish: 6.63%
[13]
  Length/fish (cm) Mean: 30.5 cm
  Weight/fish (g) Mean: 629.02 g
  Δ Mean % (Treatment vs. control) Length/fish: 1.23%
  Δ Mean % (Treatment vs. control) Weight/fish: 4.51%
[14]
  Length/fish (cm) Mean: 17.19 cm
  Weight/fish (g) Mean: 106.51 g
  Δ Mean % (Treatment vs. control) Length/fish: −0.17%
  Δ Mean % (Treatment vs. control) Weight/fish: 0.96%
[15]
  Length/fish (cm) Mean: 34.14 cm
  Weight/fish (g) Mean: 877.38 g
  Δ Mean % (Treatment vs. control) Length/fish: −0.70%
  Δ Mean % (Treatment vs. control) Weight/fish: 1.39%
[16]
  % big fish (Big fish 279 dph >1000 g): 14.7%
  % small fish (Small fish 279 dph >476 g): 4.8%
  Δ Treatment - Control (%) big fish (>1000 g): 4.4%
  Δ Treatment - Control (%) small fish (>476 g): −4.4%
  Average FCR/cage: −2.14%
  Average density (body/cage): 3.34%
  Average weight gain/fish (g): 1.69%
  Average weight/fish (g): 3.89%
  Total weight/cage (g): 7.37%
[17]
  Big fish # (Big fish 279 dph >1000 g): 68
  Small fish # (Small fish 279 dph): 22
[18]
  Length/fish (cm) Mean: 15.96 cm
  Weight/fish (g) Mean: 86.4 g
  Δ Mean % (Treatment vs. control) Length/fish: 1.08%
  Δ Mean % (Treatment vs. control) Weight/fish: 5.08%
[19]
  Length/fish (cm) Mean: 30.48 cm
  Weight/fish (g) Mean: 631.17 g
  Δ Mean % (Treatment vs. control) Length/fish: 1.16%
  Δ Mean % (Treatment vs. control) Weight/fish: 4.86%
[20]
  Length/fish (cm) Mean: 17.26 cm
  Weight/fish (g) Mean: 111.87 g
  Δ Mean % (Treatment vs. control) Length/fish: 0.23%
  Δ Mean % (Treatment vs. control) Weight/fish: 6.04%
[21]
  Length/fish (cm) Mean: 34.15 cm
  Weight/fish (g) Mean: 881.92 g
  Δ Mean % (Treatment vs. control) Length/fish: −0.67%
  Δ Mean % (Treatment vs. control) Weight/fish: 1.92%
[22]
  % big fish (Big fish 279 dph >1000 g): 12.0%
  % small fish (Small fish 279 dph >476 g): 8.6%
  Δ Treatment - Control (%) big fish (>1000 g): 1.8%
  Δ Treatment - Control (%) small fish (>476 g): −0.5%
  Average FCR/cage: −0.53%
  Average density (body/cage): −1.78%
  Average weight gain/fish (g): 7.59%
[23]
  Big fish # (Big fish 279 dph >1000 g): 53
  Small fish # (Small fish 279 dph): 38

Reference: patent publication US20220167645A1, “METHODS OF IMPROVING FISH FEED CONVERSION RATE AND SURVIVAL” (AQUINOVO LTD., priority 2019, published 2022)
